Test system: lecithin cholesterol acyltransferase (LCAT)
Experiment: Effect upon activity of lecithin cholesterol acyltransferase in rats suffering from hyperlipemia
Assay type: in vivo, rat
Excerpt: The original lecithin and cholesterol in the serum were used as substrates, which were kept warm for some time. Because of the effect of lecithin cholesterol acyltransferase (LCAT), cholesterolester (CE) in serum was increased, but free cholesterol (FC) decreased. Then cholesterol was oxidized by cholesterol oxidase and hydrogen peroxide was produced. The latter reacted with […] and phenol under the action of horseradish peroxidase to produce red quinone imide, which can be used for colorimetric analysis to determine the content of FC. The decrease in FC, ie, the esterification of cholesterol can indicate the activity of LCAT in magnitude. […]
(2) Two portions of 0.1 ml fresh serum were taken from each animal of each group and were preheated in water bath at 37° C. for five minutes, to one portion of which 3 ml cholesterol enzyme-linked reagent application solution was added (30 ml enzyme reaction solution for 1 ml cholesterol enzyme-linked reagent), mixed thoroughly and heated in water bath at 37° C. for 15 minutes while blank control tube and standard tube (0.05 ml standard cholesterol absolute alcohol solution) were made. […] OD was read and FC content was calculated in terms of Beer's law, which was the serum FC content before reaction. […] Then FC content was determined as above, expressed as OD, which was the serum FC content after reaction. […]

CCOC(=O)C(C)(C)Oc1ccc(Cl)cc1 [Astromid-s]
Effect on activity of LCAT (in words) (0.13 g/kg): not noticeable
LCAT activity (TC esterification nmol/ml/h) (hyperlipemia rat serum, dose 0.13 g/kg for seven days, x ± SD): 536 ± 277 nmol/mL/h
